Assay [1] addresses T1, Caspase-3 (Homo sapiens, UniProt P42574).
T1 sequence (P42574 whole entry): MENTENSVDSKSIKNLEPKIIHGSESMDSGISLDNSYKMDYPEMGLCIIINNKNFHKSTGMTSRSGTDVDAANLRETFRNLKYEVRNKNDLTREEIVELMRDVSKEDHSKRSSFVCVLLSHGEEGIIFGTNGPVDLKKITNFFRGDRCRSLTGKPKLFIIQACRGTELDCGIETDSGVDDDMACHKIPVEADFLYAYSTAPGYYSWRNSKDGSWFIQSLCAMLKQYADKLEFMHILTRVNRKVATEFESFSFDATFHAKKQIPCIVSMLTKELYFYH
The class given is functional.

Assay [2] concerns the target T2, Sentrin-specific protease 7 (Homo sapiens, UniProt Q9BQF6).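 Further: Luminescence-based dose-response confirmation of ultra-high-throughput screening hits, measuring inhibition of SENP7.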
T2 sequence (Q9BQF6 whole entry): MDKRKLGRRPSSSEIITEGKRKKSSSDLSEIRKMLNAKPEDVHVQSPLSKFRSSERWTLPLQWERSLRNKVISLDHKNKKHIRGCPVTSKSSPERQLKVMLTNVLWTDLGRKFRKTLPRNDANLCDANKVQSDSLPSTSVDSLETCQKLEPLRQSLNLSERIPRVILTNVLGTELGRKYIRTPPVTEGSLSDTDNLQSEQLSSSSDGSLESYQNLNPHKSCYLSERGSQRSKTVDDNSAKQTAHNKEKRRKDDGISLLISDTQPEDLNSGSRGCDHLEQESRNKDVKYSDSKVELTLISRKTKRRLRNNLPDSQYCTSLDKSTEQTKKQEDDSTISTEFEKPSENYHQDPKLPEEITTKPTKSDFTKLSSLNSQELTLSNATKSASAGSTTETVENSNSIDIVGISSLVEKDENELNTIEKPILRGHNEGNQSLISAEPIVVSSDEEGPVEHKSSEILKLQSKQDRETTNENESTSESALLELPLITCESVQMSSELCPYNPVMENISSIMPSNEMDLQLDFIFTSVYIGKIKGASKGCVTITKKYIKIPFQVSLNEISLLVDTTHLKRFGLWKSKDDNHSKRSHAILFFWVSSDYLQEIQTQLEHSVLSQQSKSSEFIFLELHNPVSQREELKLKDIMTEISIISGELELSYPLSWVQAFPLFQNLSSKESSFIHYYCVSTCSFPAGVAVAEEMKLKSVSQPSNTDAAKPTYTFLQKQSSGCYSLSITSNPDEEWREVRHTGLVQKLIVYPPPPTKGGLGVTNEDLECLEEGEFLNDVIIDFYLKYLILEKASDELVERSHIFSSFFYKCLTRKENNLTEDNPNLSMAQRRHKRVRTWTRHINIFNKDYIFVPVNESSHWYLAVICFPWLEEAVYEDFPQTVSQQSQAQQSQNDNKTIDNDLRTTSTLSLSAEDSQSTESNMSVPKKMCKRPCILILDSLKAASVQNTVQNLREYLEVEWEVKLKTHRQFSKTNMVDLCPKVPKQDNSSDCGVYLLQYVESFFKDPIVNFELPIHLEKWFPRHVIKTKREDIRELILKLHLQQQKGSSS
It is filed as functional.

Assay [3] has as its target T3, Sentrin-specific protease 6 (Homo sapiens, UniProt Q9GZR1).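 Further: Luminescence-based dose-response confirmatory assay of SENP6 inhibition, following up an ultra-high-throughput screen.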
T3 sequence (Q9GZR1 whole entry): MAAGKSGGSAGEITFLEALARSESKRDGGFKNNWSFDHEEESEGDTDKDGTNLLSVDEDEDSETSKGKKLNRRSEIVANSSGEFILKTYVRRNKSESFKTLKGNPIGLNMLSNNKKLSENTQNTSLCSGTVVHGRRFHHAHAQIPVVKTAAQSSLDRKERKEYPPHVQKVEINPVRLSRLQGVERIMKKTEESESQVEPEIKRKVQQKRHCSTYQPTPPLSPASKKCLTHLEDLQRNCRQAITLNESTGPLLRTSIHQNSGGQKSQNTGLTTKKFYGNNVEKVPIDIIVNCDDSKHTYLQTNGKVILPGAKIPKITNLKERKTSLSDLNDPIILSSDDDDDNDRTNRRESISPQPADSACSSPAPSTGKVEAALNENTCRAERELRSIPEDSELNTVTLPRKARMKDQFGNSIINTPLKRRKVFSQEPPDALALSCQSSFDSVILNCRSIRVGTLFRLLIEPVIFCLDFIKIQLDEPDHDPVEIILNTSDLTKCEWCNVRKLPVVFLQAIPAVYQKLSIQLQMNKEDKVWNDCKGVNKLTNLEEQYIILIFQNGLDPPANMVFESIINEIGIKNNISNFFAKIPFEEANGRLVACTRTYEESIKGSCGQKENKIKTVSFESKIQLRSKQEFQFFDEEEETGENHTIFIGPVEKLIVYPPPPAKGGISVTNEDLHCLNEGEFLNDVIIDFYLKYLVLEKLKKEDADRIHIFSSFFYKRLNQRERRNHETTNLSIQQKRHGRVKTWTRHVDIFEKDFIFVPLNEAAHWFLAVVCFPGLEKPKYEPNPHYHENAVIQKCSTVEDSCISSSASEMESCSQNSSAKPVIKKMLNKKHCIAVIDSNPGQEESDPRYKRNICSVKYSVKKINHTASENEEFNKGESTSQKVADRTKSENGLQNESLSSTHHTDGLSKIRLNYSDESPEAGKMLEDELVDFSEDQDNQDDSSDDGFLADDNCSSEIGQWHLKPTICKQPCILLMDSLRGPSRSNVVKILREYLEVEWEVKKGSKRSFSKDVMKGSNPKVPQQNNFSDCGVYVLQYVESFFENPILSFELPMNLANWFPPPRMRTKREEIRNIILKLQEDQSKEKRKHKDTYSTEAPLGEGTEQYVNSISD
The class given is functional.

Assay [4] addresses T4, Sentrin-specific protease 8 (Homo sapiens, UniProt Q96LD8).
T4 sequence (Q96LD8 whole entry): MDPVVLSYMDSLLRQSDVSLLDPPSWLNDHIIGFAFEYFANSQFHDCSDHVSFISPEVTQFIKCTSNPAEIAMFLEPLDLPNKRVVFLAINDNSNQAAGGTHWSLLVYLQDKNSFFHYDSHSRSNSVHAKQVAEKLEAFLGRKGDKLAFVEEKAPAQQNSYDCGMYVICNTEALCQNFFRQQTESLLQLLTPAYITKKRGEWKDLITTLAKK
The class given is functional.

Assay [5] concerns the target T5, Apoptotic protease-activating factor 1 (Homo sapiens, UniProt O14727).
T5 sequence (O14727 whole entry): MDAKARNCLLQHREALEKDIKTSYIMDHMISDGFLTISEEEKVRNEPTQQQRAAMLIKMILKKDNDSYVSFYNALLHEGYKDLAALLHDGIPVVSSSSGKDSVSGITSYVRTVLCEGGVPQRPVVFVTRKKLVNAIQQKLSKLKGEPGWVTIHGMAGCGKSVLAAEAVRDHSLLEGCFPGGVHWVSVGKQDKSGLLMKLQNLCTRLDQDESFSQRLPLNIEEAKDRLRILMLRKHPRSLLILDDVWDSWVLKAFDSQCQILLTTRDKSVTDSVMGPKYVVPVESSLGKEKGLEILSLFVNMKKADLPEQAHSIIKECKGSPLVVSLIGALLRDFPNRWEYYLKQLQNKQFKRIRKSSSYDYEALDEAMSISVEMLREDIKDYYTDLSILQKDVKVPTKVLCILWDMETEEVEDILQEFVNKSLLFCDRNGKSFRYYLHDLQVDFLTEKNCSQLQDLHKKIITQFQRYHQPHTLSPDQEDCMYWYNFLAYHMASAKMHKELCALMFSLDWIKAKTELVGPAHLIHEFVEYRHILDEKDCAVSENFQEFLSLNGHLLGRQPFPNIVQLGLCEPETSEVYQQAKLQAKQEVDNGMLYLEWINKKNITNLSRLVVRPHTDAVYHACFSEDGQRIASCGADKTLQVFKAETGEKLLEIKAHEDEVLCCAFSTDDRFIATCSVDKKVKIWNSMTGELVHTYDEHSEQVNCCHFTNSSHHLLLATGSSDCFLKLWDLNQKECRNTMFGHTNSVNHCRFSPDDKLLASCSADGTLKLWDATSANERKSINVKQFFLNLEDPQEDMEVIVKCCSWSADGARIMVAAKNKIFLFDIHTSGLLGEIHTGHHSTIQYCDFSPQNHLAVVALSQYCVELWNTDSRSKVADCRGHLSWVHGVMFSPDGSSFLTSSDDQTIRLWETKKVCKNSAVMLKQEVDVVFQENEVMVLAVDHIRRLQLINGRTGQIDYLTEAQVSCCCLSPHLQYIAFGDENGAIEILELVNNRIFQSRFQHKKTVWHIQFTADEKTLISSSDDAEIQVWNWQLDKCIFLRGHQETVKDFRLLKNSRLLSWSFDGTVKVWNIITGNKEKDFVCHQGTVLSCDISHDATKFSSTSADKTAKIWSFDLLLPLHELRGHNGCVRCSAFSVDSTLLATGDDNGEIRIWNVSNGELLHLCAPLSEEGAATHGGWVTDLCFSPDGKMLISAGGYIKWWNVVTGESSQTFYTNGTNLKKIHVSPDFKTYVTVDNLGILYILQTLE
It is filed as functional.

Assay [6] deals with Heat shock protein HSP 90-alpha (Homo sapiens, UniProt P07900). The class given is functional, organism-based.
Assay [7] addresses T6, Protein skinhead-1 (Caenorhabditis elegans, UniProt P34707).
T6 sequence (P34707 whole entry): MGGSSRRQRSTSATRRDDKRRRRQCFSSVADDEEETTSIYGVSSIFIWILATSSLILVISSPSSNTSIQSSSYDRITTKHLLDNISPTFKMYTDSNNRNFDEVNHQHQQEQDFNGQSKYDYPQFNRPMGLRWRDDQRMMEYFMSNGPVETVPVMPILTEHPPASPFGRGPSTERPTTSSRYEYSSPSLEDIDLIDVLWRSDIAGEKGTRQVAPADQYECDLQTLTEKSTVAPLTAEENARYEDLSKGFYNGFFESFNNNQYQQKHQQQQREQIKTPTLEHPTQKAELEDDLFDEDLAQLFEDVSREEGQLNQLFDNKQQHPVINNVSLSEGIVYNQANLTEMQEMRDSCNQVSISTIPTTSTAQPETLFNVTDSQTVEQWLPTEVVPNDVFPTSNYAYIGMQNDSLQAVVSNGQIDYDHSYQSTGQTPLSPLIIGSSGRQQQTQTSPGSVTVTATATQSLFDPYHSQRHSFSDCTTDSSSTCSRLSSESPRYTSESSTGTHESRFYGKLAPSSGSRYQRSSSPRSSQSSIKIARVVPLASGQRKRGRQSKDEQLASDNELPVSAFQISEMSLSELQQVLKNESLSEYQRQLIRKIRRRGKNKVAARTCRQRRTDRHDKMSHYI
The class given is functional.

Assay [8] deals with H9c2. As to the kind of experiment: cells. The class given is functional, cell-based. The conditions noted are these: Rattus norvegicus, H9c2, Myocardium.
Assay [9] has as its target T7, Corticotropin-releasing factor receptor 2/Corticotropin-releasing factor-binding protein (Homo sapiens, UniProt P24387+Q13324).
T7 sequence (Q13324 whole entry): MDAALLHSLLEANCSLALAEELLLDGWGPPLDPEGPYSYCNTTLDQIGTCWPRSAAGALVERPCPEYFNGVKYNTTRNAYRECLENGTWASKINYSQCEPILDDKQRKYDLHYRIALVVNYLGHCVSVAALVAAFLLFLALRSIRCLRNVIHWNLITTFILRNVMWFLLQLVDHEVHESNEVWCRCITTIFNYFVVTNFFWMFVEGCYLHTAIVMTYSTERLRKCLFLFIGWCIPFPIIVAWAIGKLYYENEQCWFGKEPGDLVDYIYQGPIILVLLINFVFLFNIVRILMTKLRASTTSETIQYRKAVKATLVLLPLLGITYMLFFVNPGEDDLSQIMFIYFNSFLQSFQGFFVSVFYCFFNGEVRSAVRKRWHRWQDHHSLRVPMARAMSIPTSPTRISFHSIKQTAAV
T7 sequence (P24387 whole entry): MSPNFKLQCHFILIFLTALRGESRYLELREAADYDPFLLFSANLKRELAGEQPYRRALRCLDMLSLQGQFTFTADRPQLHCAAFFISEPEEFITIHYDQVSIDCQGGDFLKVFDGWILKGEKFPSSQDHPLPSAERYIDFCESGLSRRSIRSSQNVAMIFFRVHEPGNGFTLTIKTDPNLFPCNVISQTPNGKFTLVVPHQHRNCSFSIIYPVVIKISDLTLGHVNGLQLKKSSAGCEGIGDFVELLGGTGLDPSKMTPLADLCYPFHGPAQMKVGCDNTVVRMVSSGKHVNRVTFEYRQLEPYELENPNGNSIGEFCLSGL
Kind of assay: activators of CRF receptor 2 with binding protein – uHTS hits, confirmation (AID 602473). It is filed as functional. The settings on record: read-out: EC50_Mean.

The record followed here is ChEMBL document CHEMBL1201862, “PubChem BioAssay data set” (2004).

Active and inactive are the calls of the source. For most assays here, no stated cut-off is given here; in the data, actives have a measured IC50 and inactives only a lower limit.

For the compound `COc1ccc(-c2cc3ccc(OC)cc3cn2)cc1`, the IC50 in assay [1] is 15.8 µM (active); in [2] it was 1.69 µM (active); in [3], > 100 µM (inactive); in [4], > 100 µM (inactive).

Regarding `CN(Cc1ccc(F)cc1)C(=O)CNC(=O)c1cccs1`, in [5], the IC50 is > 100 µM (inactive).

With `O=C1/C(=C\c2ccc(O)c(O)c2)SC(=S)N1Cc1ccccc1`, the IC50 in assay [1] is 67.5 µM (active); in [2], 13 µM (active); in [3], 11.5 µM (active); in [4], 10.7 µM (active). The AC50 in assay [6] is 3.11 µM (active).

As for `CCCOc1ccc(C(=O)Nc2ccc(Cl)cn2)cc1`, the IC50 was 7.83 µM (active) in [1]; 3.22 µM (active) in assay [2]; 16.1 µM (active) in assay [3]; 9.81 µM (active) in assay [4]; 100 µM (inactive) in assay [7].

Consider `O=C(c1cc(O)nc2ccccc12)N1CCN(S(=O)(=O)c2ccc3ccccc3c2)CC1`, for which the IC50 in assay [8] is > 79 µM (inactive).

As to `O=C(NCCN1CCN(c2ccccc2F)CC1)c1cccn2c(=O)c3ccccc3nc12`, the IC50 in assay [8] is > 79 µM (inactive).

Regarding `CC(C)(C)/N=C/c1c(O)ccc2oc3c(c12)CCCC3`, the IC50 in assay [8] was > 79 µM (inactive). For the same compound, the EC50 in assay [9] is > 53 µM (inactive).

Take `NC(=O)COc1ccc2oc(=O)cc(-c3cc4ccccc4o3)c2c1`: in assay [8], the IC50 is > 79 µM (inactive).

One may read the IC50 as the concentration that inhibits the measured activity by half. In general, AC50 refers to the concentration at which the activity in the assay is half-maximal.
